We go through 15 compounds from ChEMBL document CHEMBL1134764, “Inhibition of RANTES/CCR1-mediated chemotaxis by cosalane and related compounds” (Bioorg Med Chem Lett, 2001).

One experiment addresses T1, C-C chemokine receptor type 1 (Homo sapiens, UniProt P32246).
T1 sequence (P32246 whole entry): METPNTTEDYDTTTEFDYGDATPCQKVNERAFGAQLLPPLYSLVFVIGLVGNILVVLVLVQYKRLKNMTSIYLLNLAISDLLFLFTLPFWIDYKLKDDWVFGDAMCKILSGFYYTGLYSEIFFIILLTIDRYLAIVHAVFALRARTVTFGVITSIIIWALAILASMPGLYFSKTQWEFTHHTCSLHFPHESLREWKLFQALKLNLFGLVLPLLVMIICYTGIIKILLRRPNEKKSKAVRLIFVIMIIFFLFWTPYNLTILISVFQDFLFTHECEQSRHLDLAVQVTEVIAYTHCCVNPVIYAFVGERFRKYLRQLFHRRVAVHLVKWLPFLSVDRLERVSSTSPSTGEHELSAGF
Description: Compound was evaluated for the inhibition of RANTES-induced migration of human embryonic kidney (CCR1/HEK) cell transfectants; NA: not active. The class given is functional.
One may read the IC50 as the midpoint of a concentration-inhibition curve. Low readings indicate inhibition by little substance, high ones a need for much substance. As for `CC(C)CCCC(C)[C@H]1CC[C@H]2[C@@H]3CCC4C[C@@H](CCC=C(c5cc(Cl)c(OCc6ccc(C(=O)[O-])cc6)c(C(=O)[O-])c5)c5cc(Cl)c(OCc6ccc(C(=O)[O-])cc6)c(C(=O)[O-])c5)CC[C@]4(C)[C@H]3CC[C@]12C.[Na+].[Na+].[Na+].[Na+]` (stereo partly specified), the IC50 result was “Not Active”.

Tested on in the next experiment: not listed separately
Put plainly: Compound was evaluated for the inhibition of RANTES-induced migration of human monocytes. The class given is functional.
`CC(C)CCCC(C)[C@H]1CC[C@H]2[C@@H]3CCC4C[C@@H](CCC=C(c5cc(Cl)c(OCc6cccc(B(O)O)c6)c(C(=O)O)c5)c5cc(Cl)c(OCc6cccc(B(O)O)c6)c(C(=O)O)c5)CC[C@]4(C)[C@H]3CC[C@]12C` (stereo partly specified) displayed a half-inhibitory concentration (IC50) of 2200 nM.

With `CC(C)CCCC(C)[C@H]1CC[C@H]2[C@@H]3CCC4C[C@@H](CCC=C(c5cc(Cl)c(OCc6ccc(-c7cccc(C(=O)O)c7)cc6)c(C(=O)O)c5)c5cc(Cl)c(OCc6ccc(-c7cccc(C(=O)O)c7)cc6)c(C(=O)O)c5)CC[C@]4(C)[C@H]3CC[C@]12C` (stereo partly specified), inhibition was half-maximal at 3000 nM (IC50).

Compound `CSCC[C@H](NC(=O)c1cc(C(=CCC[C@H]2CC[C@@]3(C)C(CC[C@H]4[C@@H]5CC[C@H](C(C)CCCC(C)C)[C@@]5(C)CC[C@@H]43)C2)c2cc(Cl)c(O)c(C(=O)N[C@@H](CCSC)C(=O)O)c2)cc(Cl)c1O)C(=O)O` (stereo partly specified) gave a concentration for half-maximal inhibition (IC50) of 820 nM.

Take `CC(C)CCCC(C)[C@H]1CC[C@H]2[C@@H]3CCC4C[C@@H](CCC=C(c5cc(Cl)c(OCc6cccc(C(=O)O)c6)c(C(=O)O)c5)c5cc(Cl)c(OCc6cccc(C(=O)O)c6)c(C(=O)O)c5)CC[C@]4(C)[C@H]3CC[C@]12C` (stereo partly specified): half-maximal inhibition (IC50) required 10000 nM.

`CC(C)CCCC(C)[C@H]1CC[C@H]2[C@@H]3CCC4C[C@@H](CCC=C(c5cc(Cl)c(OCc6ccccc6C(=O)O)c(C(=O)O)c5)c5cc(Cl)c(OCc6ccccc6C(=O)O)c(C(=O)O)c5)CC[C@]4(C)[C@H]3CC[C@]12C` (stereo partly specified) showed a half-inhibitory concentration (IC50) of 3900 nM.

For `CC(C)CCCC(C)[C@H]1CC[C@H]2[C@@H]3CCC4C[C@@H](CCC=C(c5cc(Cl)c(O)c(C(=O)O)c5)c5cc(Cl)c(O)c(C(=O)O)c5)CC[C@]4(C)[C@H]3CC[C@]12C` (stereo partly specified), half-maximal inhibition (IC50) was put at 760 nM.

Take `CC(C)CCCC(C)[C@H]1CC[C@H]2[C@@H]3CCC4C[C@@H](CCC=C(c5cc(Cl)c(OCc6cccc([N+](=O)[O-])c6)c(C(=O)O)c5)c5cc(Cl)c(OCc6cccc([N+](=O)[O-])c6)c(C(=O)O)c5)CC[C@]4(C)[C@H]3CC[C@]12C` (stereo partly specified): the IC50 was 3500 nM. This IC50 lies about 4.6-fold higher than the previous one.

Tested on in the next experiment: not listed separately
Put plainly: Compound was evaluated for the inhibition of RANTES-induced migration of human monocytes; NA: not active. The class given is functional.
Take `CC(C)CCCC(C)[C@H]1CC[C@H]2[C@@H]3CCC4C[C@@H](CCC=C(c5cc(Cl)c(O)c(C(=O)N[C@@H](CC(=O)O)C(=O)O)c5)c5cc(Cl)c(O)c(C(=O)N[C@@H](CC(=O)O)C(=O)O)c5)CC[C@]4(C)[C@H]3CC[C@]12C` (stereo partly specified): the IC50 result is “Not Active”.

For the compound `COc1c(COc2c(Cl)cc(C(=CCC[C@H]3CC[C@@]4(C)C(CC[C@H]5[C@@H]6CC[C@H](C(C)CCCC(C)C)[C@@]6(C)CC[C@@H]54)C3)c3cc(Cl)c(OCc4cccc(C(=O)O)c4OC)c(C(=O)[O-])c3)cc2C(=O)[O-])cccc1C(=O)O.[Na+].[Na+]` (stereo partly specified), the IC50 entry is “Not Active”.

`CC(C)CCCC(C)[C@H]1CC[C@H]2[C@@H]3CCC4C[C@@H](CCC=C(c5cc(Cl)c(OCc6ccccc6B([O-])O)c(C(=O)[O-])c5)c5cc(Cl)c(OCc6ccccc6B([O-])O)c(C(=O)[O-])c5)CC[C@]4(C)[C@H]3CC[C@]12C.[Na+].[Na+].[Na+].[Na+]` (stereo partly specified): the IC50 entry is “Not Active”.

In the case of `CC(C)CCCC(C)[C@H]1CC[C@H]2[C@@H]3CCC4C[C@@H](CCC=C(c5cc(Cl)c(O)c(C(=O)N[C@@H](Cc6ccccc6)C(=O)O)c5)c5cc(Cl)c(O)c(C(=O)N[C@@H](Cc6ccccc6)C(=O)O)c5)CC[C@]4(C)[C@H]3CC[C@]12C` (stereo partly specified), the IC50 entry was “Not Active”.

Take `CC(C)CCCC(C)[C@H]1CC[C@H]2[C@@H]3CCC4C[C@@H](CCC=C(c5cc(Cl)c(OCc6ccc(C(=O)O)cc6)c(C(=O)[O-])c5)c5cc(Cl)c(OCc6ccc(C(=O)O)cc6)c(C(=O)[O-])c5)CC[C@]4(C)[C@H]3CC[C@]12C.[Na+].[Na+]` (stereo partly specified): the IC50 entry is recorded as “Not Active”.

For `CC(C)CCCC(C)[C@H]1CC[C@H]2[C@@H]3CCC4C[C@@H](CCC=C(c5cc(Cl)c(OCc6ccc(B([O-])O)cc6)c(C(=O)[O-])c5)c5cc(Cl)c(OCc6ccc(B([O-])O)cc6)c(C(=O)[O-])c5)CC[C@]4(C)[C@H]3CC[C@]12C.[Na+].[Na+].[Na+].[Na+]` (stereo partly specified), the IC50 entry is recorded as “Not Active”.

Turning to `CC(C)CCCC(C)[C@H]1CC[C@H]2[C@@H]3CCC4C[C@@H](CCC=C(c5cc(Cl)c(OCc6ccc(C(=O)[O-])cc6)c(C(=O)[O-])c5)c5cc(Cl)c(OCc6ccc(C(=O)[O-])cc6)c(C(=O)[O-])c5)CC[C@]4(C)[C@H]3CC[C@]12C.[Na+].[Na+].[Na+].[Na+]` (stereo partly specified), the IC50 result was “Not Active”.

Regarding `CC(C)CCCC(C)[C@H]1CC[C@H]2[C@@H]3CCC4C[C@@H](CCC=C(c5cc(Cl)c(O)c(C(=O)N[C@@H](CCC(=O)O)C(=O)O)c5)c5cc(Cl)c(O)c(C(=O)N[C@@H](CCC(=O)O)C(=O)O)c5)CC[C@]4(C)[C@H]3CC[C@]12C` (stereo partly specified), the IC50 result is “Not Active”.
